Measured values published in PMC5793130, “The Peptide PnPP-19, a Spider Toxin Derivative, Activates μ-Opioid Receptors and Modulates Calcium Channels” (Toxins, 2018).

Tests used:
[1] = system: μ-opioid receptors; settings: cited from earlier work
[2] = system: calcium channels in dorsal root ganglion (DRG) neurons; format: cell-based; settings: rat DRG neurons
Procedure: Intact neurons of rat dorsal root ganglia (DRG) were used for whole-cell patch-clamp recordings.
DRGs were isolated from adult Wistar rats (200 ± 300 g) and neurons cultured as described by Lindsay (1988) [35] with minor modifications. The neurons were isolated and washed by gravity in phosphate-buffered saline (PBS). The cells were than incubated with collagenase type IV (sigma, St. Louis, MO, USA) solution (5 mL of Dulbecco’s modified Eagle’s medium—DMEM; 10% v/v fetal bovine serum; penicillin 200 units/mL—streptomycin 200 μg/mL; 12.5 mg of collagenase type IV) for 90 min at 37 °C. After that, ganglions were washed 3 times by gravity in PBS and trypsin solution (2500–6000 BAEE U/ML, sigma, St. Louis, MO, USA) was added. In order to dissociate the DRG neurons, the ganglions were taken up and down with the use of a fine tipped transfer pipette. Cells were then incubated with the trypsin solution for 10 min at 37 °C. After the incubation period, 1 mL of bovine serum albumin (BSA) solution (16% v/v in PBS) was added and cells were more firmly dissociated. The cell suspension was added on the top of 3 mL BSA solution and centrifuged at 500× g for 6 min. The supernatant was discarded and the pellet was resuspended in complete media (DMEM media; 10% v/v fetal bovine serum; 1% v/v penicillin/streptomycin; 0.1% v/v NGF). […]

[3] = system: μ-opioid receptor-β-arrestin2 association; assay: BiFC β-arrestin2 recruitment in HEK293T cells; format: cell-based; settings: HEK293T coexpressing μ-opioid receptor-Yc and β-arrestin2-Yn; 10^−10 M–10^−4 M, 60 min, 37 °C; normalized by 10 μM DAMGO (100%); n = 5
Procedure: HEK293T were cultured in DMEM (Sigma-Aldrich) supplemented with 10% v/v fetal bovine serum. […] To analyze whether activation of μ-opioid receptor would induce recruitment of β-arrestin2, the Bimolecular fluorescence complementation (BiFC) based detection of μ-opioid receptor-β-arrestin2 association was conducted. The cells were seeded at 33,000 cells/well onto poly (D-lysine)-coated Greiner 655,090 imaging plates. Plates were kept in a humidified incubator at 37 °C filled with 5% CO2 for 24 h. […] After that, cells were fixated with 3% paraformaldehyde in PBS for 10 min at room temperature. Then, cells were washed once with PBS and the cell nuclei were stained for 15 min with H33342 (2 μg/mL in PBS, Sigma, St. Louis, MO, USA). H33342 was then removed by a final PBS wash. Images (4 central sites/well) were acquired automatically on the IX Ultra confocal plate reader, using 405 nm/488 nm laser lines for H33342 and complemented YFP excitation, respectively. Data was analyzed by the use of MetaXpress software (version 5.3, Sunnyvale, CA, USA, 2013) as described by Liu and co-authors [38] and normalized by 10 μM of DAMGO (100%).

For `C[C@@H](Cc1ccsc1)NC(=O)NC[C@H](Cc1ccc(O)cc1)N(C)C` [PZM21], the β-arrestin2 recruitment [1] is listed as “minimal β-arrestin2 recruitment”.
In the case of `C=CCN1CC[C@]23c4c5ccc(O)c4O[C@H]2C(=O)CC[C@@]3(O)[C@H]1C5` [naloxone], the “effect of naloxone alone on calcium current density” value ([2]; 10 μM naloxone) is reported as “no significant effect on the current density” and the “effect of naloxone pre-incubation on PnPP-19 inhibition of calcium current” value ([2]; 10 μM naloxone for 30 min, then 1 μM PnPP-19) is reported as “completely blocks the activity of PnPP-19”.
For “[D-Ala^2, MePhe^4, Gly-ol^5] encephalin [DAMGO]”, the β-arrestin2 recruitment [3] was “could clearly induce β-arrestin2 recruitment”.
